Reference: patent US12655126B2, “Imidazole-pyrazole derivatives as antibacterials” (Hoffmann-La Roche Inc., priority 2020, dated 2026)
Where a name gives a salt, the structure may show the parent alone.

System: Acinetobacter baumannii ATCC17961
Test: Antimicrobial susceptibility testing: 90% growth inhibitory concentration (IC90) determination
Assay type: cell-based
Settings: Acinetobacter baumannii ATCC17961; Iso-Sensitest broth; growth by OD 600 nm over 16 h; 90% growth inhibitory concentration; read-out: ATCC 17961 IC90
Experimental: Antimicrobial Susceptibility Testing:
90% Growth Inhibitory Concentration (IC90) Determination
The in vitro antimicrobial activity of the compounds was determined according to the following procedure:
The assay used a 10-points Iso-Sensitest broth medium to measure quantitatively the in vitro activity of the compounds against Acinetobacter baumannii ATCC17961.
Stock compounds in DMSO were serially twofold diluted (e.g. range from 50 to 0.097 μM final concentration) in 384 wells microtiter plates and inoculated with 49 μl the bacterial suspension in Iso-Sensitest medium to have a final cell concentration of ˜5×10^(5) CFU/ml in a final volume/well of 50 ul/well. Microtiter plates were incubated at 35±2° C.
Bacterial cell growth was determined with the measurement of optical density at λ=600 nm each minutes over a time course of 16 h. Growth inhibition was calculated during the logarithmic growth of the bacterial cells with determination of the concentration inhibiting 50% (IC50) and 90% (IC90) of the growth.
Table 1 provides the 90% growth inhibitory concentrations (IC90) in micromoles per liter of the compounds of present invention obtained against the strain Acinetobacter baumannii ATCC17961.

Row | IC90 [nM] | Structure (SMILES)
1 | 1300 | Cn1c(-c2cn(-c3ccc(N)cn3)nc2C(F)(F)F)cnc1C(=O)Nc1ccc(C(=O)NCC2CCN(C(=O)C3CC[N+](C)(C)CC3)CC2)c(Cl)c1 [Example D12, 5-[1-(5-amino-2-pyridyl)-3-(trifluoromethyl)pyrazol-4-yl]-N-[3-chloro-4-[[1-(1,1-dimethylpiperidin-1-ium-4-carbonyl)-4-piperidyl]methylcarbamoyl]phenyl]-1-methyl-imidazole-2-carboxamide; formate]
2 | 420 | Cn1c(-c2cn(-c3ccc(N)cn3)nc2C(F)(F)F)cnc1C(=O)Nc1ccc(C(=O)N2CCN(C(=O)[C@@H]3COCC[N+]3(C)C)CC2)c(Cl)c1 [Example D13, 5-[1-(5-amino-2-pyridyl)-3-(trifluoromethyl)pyrazol-4-yl]-N-[3-chloro-4-[4-[(3S)-4,4-dimethylmorpholin-4-ium-3-carbonyl]piperazine-1-carbonyl]phenyl]-1-methyl-imidazole-2-carboxamide; formate]
3 | 550 | Cn1c(-c2cn(-c3ccc(N)cn3)nc2C(F)(F)F)cnc1C(=O)Nc1ccc(C(=O)N2CCN(C(=O)[C@@H]3[C@@H](Oc4ccc(N)cn4)CC[N+]3(C)C)CC2)c(Cl)c1 [Example D14, N-[4-[4-[(2S,3S)-3-[(5-amino-2-pyridyl)oxy]-1,1-dimethyl-pyrrolidin-1-ium-2-carbonyl]piperazine-1-carbonyl]-3-chloro-phenyl]-5-[1-(5-amino-2-pyridyl)-3-(trifluoromethyl)pyrazol-4-yl]-1-methyl-imidazole-2-carboxamide; formate]
4 | 550 | Cn1c(-c2cn(-c3ccc(N)cn3)nc2C(F)(F)F)cnc1C(=O)Nc1ccc(C(=O)N2CCN(C(=O)[C@@H]3CC(O)CC[N+]3(C)C)CC2)c(Cl)c1 (stereo partly drawn) [Example D15, 5-[1-(5-Amino-2-pyridyl)-3-(trifluoromethyl)pyrazol-4-yl]-N-[3-chloro-4-[4-[(2S)-4-hydroxy-1,1-dimethyl-piperidin-1-ium-2-carbonyl]piperazine-1-carbonyl]phenyl]-1-methyl-imidazole-2-carboxamide;formate]
5 | 300 | COCCNc1ccc(-n2cc(-c3cnc(C(=O)Nc4ccc(C(=O)N5CCN(C(=O)C6CC[N+](C)(C)CC6)CC5)c(Cl)c4)n3C)c(C(F)(F)F)n2)nc1 [Example E2, N-[3-chloro-4-[4-(1,1-dimethylpiperidin-1-ium-4-carbonyl)piperazine-1-carbonyl]phenyl]-5-[1-[5-(2-methoxyethylamino)-2-pyridyl]-3-(trifluoromethyl)pyrazol-4-yl]-1-methyl-imidazole-2-carboxamide; formate]
6 | 390 | CCNc1ccc(-n2cc(-c3cnc(C(=O)Nc4ccc(C(=O)N5CCN(C(=O)C6CC[N+](C)(C)CC6)CC5)c(Cl)c4)n3C)c(C(F)(F)F)n2)nc1 [Example E3, N-[3-chloro-4-[4-(1,1-dimethylpiperidin-1-ium-4-carbonyl)piperazine-1-carbonyl]phenyl]-5-[1-[5-(ethylamino)-2-pyridyl]-3-(trifluoromethyl)pyrazol-4-yl]-1-methyl-imidazole-2-carboxamide; formate]
7 | 220 | CNc1ccc(-n2cc(-c3cnc(C(=O)Nc4ccc(C(=O)N5CCN(C(=O)C[N+]6(C)CCC(O)C6)CC5)c(Cl)c4)n3C)c(C(F)(F)F)n2)nc1 (centres unmarked) [Example E5, N-[3-chloro-4-[4-[2-(3-hydroxy-1-methyl-pyrrolidin-1-ium-1-yl)acetyl]piperazine-1-carbonyl]phenyl]-1-methyl-5-[1-[5-(methylamino)-2-pyridyl]-3-(trifluoromethyl)pyrazol-4-yl]imidazole-2-carboxamide; formate]
8 | 370 | CNc1ccc(-n2cc(-c3cnc(C(=O)Nc4ccc(C(=O)N5CCN(C(=O)[C@@H]6[C@@H](O)CC[N+]6(C)C)CC5)c(Cl)c4)n3C)c(C(F)(F)F)n2)nc1 [Example E6, N-[3-chloro-4-[4-[(2S,3S)-3-hydroxy-1,1-dimethyl-pyrrolidin-1-ium-2-carbonyl]piperazine-1-carbonyl]phenyl]-1-methyl-5-[1-[5-(methylamino)-2-pyridyl]-3-(trifluoromethyl)pyrazol-4-yl]imidazole-2-carboxamide; formate]
9 | 330 | CNc1ccc(-n2cc(-c3cnc(C(=O)Nc4ccc(C(=O)N5CCN(C(=O)C6CC[N+](C)(C)CC6)CC5)c(C)c4)n3C)c(C(F)(F)F)n2)nc1 [Example E7, N-[4-[4-(1,1-dimethylpiperidin-1-ium-4-carbonyl)piperazine-1-carbonyl]-3-methyl-phenyl]-1-methyl-5-[1-[5-(methylamino)-2-pyridyl]-3-(trifluoromethyl)pyrazol-4-yl]imidazole-2-carboxamide; formate]
10 | 220 | CNc1ccc(-n2cc(-c3cnc(C(=O)Nc4ccc(C(=O)N5CCN(C(=O)[C@@H]6CC[N+](C)(C)C[C@H]6O)CC5)c(Cl)c4)n3C)c(C(F)(F)F)n2)nc1 [Example E8, N-[3-chloro-4-[4-[(3S,4R)-3-hydroxy-1,1-dimethyl-piperidin-1-ium-4-carbonyl]piperazine-1-carbonyl]phenyl]-1-methyl-5-[1-[5-(methylamino)-2-pyridyl]-3-(trifluoromethyl)pyrazol-4-yl]imidazole-2-carboxamide; formate]
11 | 390 | Cn1c(-c2cn(-c3ccc(CO)cn3)nc2C(F)(F)F)cnc1C(=O)Nc1ccc(C(=O)N2CCN(C(=O)C3CC[N+](C)(C)CC3)CC2)c(Cl)c1 [Example F1, N-[3-Chloro-4-[4-(1,1-dimethylpiperidin-1-ium-4-carbonyl)piperazine-1-carbonyl]phenyl]-5-[1-[5-(hydroxymethyl)-2-pyridyl]-3-(trifluoromethyl)pyrazol-4-yl]-1-methyl-imidazole-2-carboxamide; formate]

Row | Structure (SMILES) | IC90 [nM]
12 | Cn1c(-c2cn(-c3cnc(N)cn3)nc2C(F)(F)F)cnc1C(=O)Nc1ccc(C(=O)N2CCN(C(=O)C3CC[N+](C)(C)CC3)CC2)c(Cl)c1 [Example D16, 5-[1-(5-aminopyrazin-2-yl)-3-(trifluoromethyl)pyrazol-4-yl]-N-[3-chloro-4-[4-(1,1-dimethylpiperidin-1-ium-4-carbonyl)piperazine-1-carbonyl]phenyl]-1-methyl-imidazole-2-carboxamide] | 320
13 | Cn1c(-c2cn(-c3ccc(N)cn3)nc2C(F)(F)F)cnc1C(=O)Nc1ccc(C(=O)N[C@H]2[C@@H]3CN(C(=O)[C@@H]4C[C@@H](O)C[N+]4(C)C)C[C@@H]32)c(Cl)c1 [Example D17, 5-[1-(5-amino-2-pyridyl)-3-(trifluoromethyl)pyrazol-4-yl]-N-[3-chloro-4-[[(exo)-3-[(2S,4R)-4-hydroxy-1,1-dimethyl-pyrrolidin-1-ium-2-carbonyl]-3-azabicyclo[3.1.0]hexan-6-yl]carbamoyl]phenyl]-1-methyl-imidazole-2-carboxamide] | 300

Same assay, conditions: Acinetobacter baumannii, ATCC17961, 16 h, read-out: ATCC 17961 IC90

Row | Structure (SMILES) | IC90 [nM]
14 | CNc1ccc(-n2cc(-c3cnc(C(=O)Nc4ccc(C(=O)N5CCN(C(=O)C6CC[N+](C)(C)CC6)CC5)c(Cl)c4)n3C)c(C(F)(F)F)n2)nc1 [Example E1, N-[3-Chloro-4-[4-(1,1-dimethylpiperidin-1-ium-4-carbonyl)piperazine-1-carbonyl]phenyl]-1-methyl-5-[1-[5-(methylamino)-2-pyridyl]-3-(trifluoromethyl)pyrazol-4-yl]imidazole-2-carboxamide; formate] | 100
